What all share (experiment): antibacterial activity (MIC), broth dilution method
Common to all, as to assay type: cell-based

For one assay, the system named is E. coli, NIHJ. To be noted: Escherichia coli, Muller-Hinton broth, 10^5 /ml bacteria, 37° C., 18 hours, read-out: Minimal Inhibitory Concentration (MIC). Here is the method: (§1) On some of the compounds according to the present invention, the antibacterial activity was determined by broth dilution method in Muller-Hinton broth in which 10^5 /ml of bacteria were seaded and incubated at 37° C. for 18 hours.

In the next assay the test system is S. aureus, 209P. The note with it: Staphylococcus aureus, Muller-Hinton broth, 10^5 /ml bacteria, 37° C., 18 hours, read-out: Minimal Inhibitory Concentration (MIC). Here is the method: as §1
Another assay concerns Ent. cloacae, 03400. To be noted: Enterobacter cloacae, Muller-Hinton broth, 10^5 /ml bacteria, 37° C., 18 hours, read-out: Minimal Inhibitory Concentration (MIC). Here is the method: as §1
For the next assay, the system named is Ser. Marcescens, 10104. To be noted: Serratia marcescens, Muller-Hinton broth, 10^5 /ml bacteria, 37° C., 18 hours, read-out: Minimal Inhibitory Concentration (MIC). Here is the method:
as §1

The test system of another assay is Ps. aeruginosa, 32233. To be noted: Pseudomonas aeruginosa, Muller-Hinton broth, 10^5 /ml bacteria, 37° C., 18 hours, read-out: Minimal Inhibitory Concentration (MIC). Here is the method:
as §1

≈ marks a conversion by molar mass, not a printed value. Where only a bound is given, the exact number is not on record here.

The record followed here is patent US5079357A, “Derivatives of penem” (Daiichi Pharmaceutical Co., Ltd., priority 1985, dated 1992).

Regarding `CC(O)C1C(=O)N2C(C(=O)[O-])=C(SC3CCn4c[n+](C)cc43)SC12` (single isomer, unassigned) [B], the MIC in the assay with E. coli, NIHJ was 0.1 µg/mL (≈ 0.272 µM); in the assay on S. aureus, 209P, at most 0.05 µg/mL; with Ent. cloacae, 03400, 0.2 µg/mL (≈ 0.544 µM); with Ser. Marcescens, 10104, 0.78 µg/mL (≈ 2.12 µM); in the assay with Ps. aeruginosa, 32233, 0.78 µg/mL (≈ 2.12 µM).
As for `CC(O)C1C(=O)N2C(C(=O)O)=C(SC3Cc4nncn4C3)SC12` [A, (5R, 6S, 8R)-6-(1-hydroxyethyl)-2-[(6,7-dihydro-5H-pyrrolo[(2,1-c]-1,2,4-triazol-6-yl)thio]-2-penem-3-carboxylic acid], the MIC with E. coli, NIHJ was at most 0.05 µg/mL; with S. aureus, 209P it was at most 0.05 µg/mL; with Ent. cloacae, 03400, 0.39 µg/mL (≈ 1.1 µM); with Ser. Marcescens, 10104 it was 0.78 µg/mL (≈ 2.2 µM); in the assay on Ps. aeruginosa, 32233, 25 µg/mL (≈ 70.5 µM).
Consider `CC(O)C1C(=O)N2C(C(=O)O)=C(SCCOC(N)=O)SC12` (stereo not drawn) [Sch 34343, reference compound], for which the MIC came to 0.39 µg/mL (≈ 1.17 µM) in the assay on E. coli, NIHJ; 0.1 µg/mL (≈ 0.299 µM) in the assay with S. aureus, 209P; 0.78 µg/mL (≈ 2.33 µM) in the assay with Ent. cloacae, 03400; 3.13 µg/mL (≈ 9.36 µM) in the assay with Ser. Marcescens, 10104; 100 µg/mL (≈ 299 µM) in the assay on Ps. aeruginosa, 32233.
